Assay results taken from patent US20090221530A1, “Relaxase Modulators and Methods of Using Same” (priority 2005, published 2009).
Read-outs that look alike come from different tables or passages of the source.

Assays:
Test in all cases: microbe, parasite or virus in culture
Assay type in all cases: cell-based, E. coli
F+ donor cells = conditions: for EC50: Escherichia coli, 100 min, vs. F+ donor cells, read-out: 100 minute EC50; for Selectivities by EC50, Transconj.: listed as vs. F+ donor cells relative to transconjugants
Source text: (§1) A 96-well fluorescence-based assay using oxygen biosensor plates (Becton Dickinson, Franklin Lakes, N.J., U.S.A.) was employed to monitor bacterial cell survival. FIG. 7 schematically illustrates the assay mechanism of action. […] In the absence of viable bacteria, however, no fluorescence emission is detected because the fluorophore is quenched by free oxygen. The assay can further be utilized to measure conjugative DNA transfer.
(§2) Relaxase-dependent cell survival was examined by placing cultures of F+/TraI+ E. coli cells (with antibiotic resistance, e.g., Ab^r1, on a non-conjugative plasmid) within wells and exposing them to putative inhibitory compounds. […] Negative controls for this assay can be F− (Ab^r2) cells and F+ cells (Ab^r1) containing either no F plasmid relaxase (TraI) gene, or a TraI harboring catalytic tyrosine to phenylalanine mutations; in both cases, these control cells should be resistant to relaxase-dependent cell toxicity. […] Fluorescence can be measured using a PHERASTAR™ fluorescence plate reader (BMG LABTECH, Offenburg, Germany) over 8 hours time.

F− recipient cells = conditions: for EC50: Escherichia coli, 100 min, vs. F− recipient cells, read-out: 100 minute EC50; for Selectivities by EC50, Donors: listed as vs. F− recipient cells relative to donors; for Selectivities by EC50, Transconj.: listed as vs. F− recipient cells relative to transconjugants
Source text: as §1, §2

transconjugants = conditions: for EC50: Escherichia coli, 100 min, read-out: 100 minute EC50, vs. transconjugants; for Selectivities by EC50, Donors: listed as vs. transconjugants relative to donors
Source text: as §1, §2

[1] = first EC50 block, mass concentration
[2] = second block, mass concentration

With `O=P(O)(O)NP(=O)(O)O` [pNp, imidodiphosphate] as the compound, how does the EC50 (F+ donor cells; [1]) read?
Its EC50 is 0.063 µg/mL.

And the EC50 (F+ donor cells; first EC50 block)?
The EC50 was 0.000356 mM.

And the EC50 (F+ donor cells; [2])?
The EC50 was 8000 µg/mL.

And the EC50 (F+ donor cells; second block)?
Its EC50 is 43 mM.

And the “Selectivities by EC50, Transconj.” value (F+ donor cells; first EC50 block)?
The value was 6.7E−02.

And the “Selectivities by EC50, Transconj.” value (F+ donor cells; second block)?
The value was 4.9E+00.

What about the EC50 (F− recipient cells; [1]) of the same compound?
The EC50 was 105 µg/mL.

What about the EC50 (F− recipient cells; first EC50 block) of the same compound?
Its EC50 is 0.593 ± 0.0035 mM.

And the EC50 (F− recipient cells; [2])?
The EC50 was 6000 µg/mL.

What about the EC50 (F− recipient cells; second block) of the same compound?
The EC50 was 35 mM.

And the “Selectivities by EC50, Donors” value (F− recipient cells; first EC50 block)?
The value was 1.7E+03.

And the “Selectivities by EC50, Donors” value (F− recipient cells; second block)?
The value was 8.0E−01.

And the “Selectivities by EC50, Transconj.” value (F− recipient cells; first EC50 block)?
Its value is 1.1E+02.

And the “Selectivities by EC50, Transconj.” value (F− recipient cells; second block)?
Its value is 4.0E−00.

And the EC50 (transconjugants; first EC50 block)?
Its EC50 is 0.005 mM.

What about the EC50 (transconjugants; [1]) of the same compound?
The EC50 was 0.936 µg/mL.

What about the EC50 (transconjugants; second block) of the same compound?
The EC50 was 9 mM.

And the EC50 (transconjugants; [2])?
Its EC50 is 2000 µg/mL.

What about the “Selectivities by EC50, Donors” value (transconjugants; first EC50 block) of the same compound?
The value was 1.5E+01.

And the “Selectivities by EC50, Donors” value (transconjugants; second block)?
The value was 2.0E−01.
